From patent publication US20210212321A1, “STABILIZED FUNGICIDAL COMPOSITION COMPRISING CYCLODEXTRIN” (Bayer CropScience LP, priority 2018, published 2021)

Assays:
Format in all cases: physicochemical
[1] = Storage of RAXIL PRO MD for two weeks with or without nitrogen purging; prothioconazole desthio quantified by LC-MS; conditions: sample D compared to samples A, B and C
Experimental: RAXIL® PRO MD is a commercial product containing 1.47% prothioconazole, 0.29% tebuconazole, and 0.59% metalaxyl in an aqueous formulation. Samples of RAXIL® PRO MD were subjected to nitrogen purging by bubbling nitrogen gas through the samples for about 5 minutes. Control samples were not purged with nitrogen. The samples were then divided into the groups outlined in Table 1. Samples were either maintained in the dark or exposed to ambient light. In addition, certain samples were wrapped in foil to minimize contact with ambient oxygen while others were not. All samples were stored at room temperature.
After two weeks of storage under these conditions, prothioconazole desthio was quantified in each sample using liquid chromatography mass spectrometry (LC-MS) using a SCIEX TRIPLE QUAD™6500 and a standard curve generated with a prothioconazole desthio chemical standard.

[2] = Storage of Prothioconazole SC for two months with or without nitrogen purging; prothioconazole desthio quantified by LC-MS; conditions: sample D compared to samples A and B
Experimental: All samples were stored in glass containers with exposure to ambient light at room temperature for two months. Certain samples were also wrapped with foil to limit exposure to ambient oxygen. At the conclusion of the storage period, prothioconazole desthio was quantified in each sample using LC-MS.
This study was conducted with the same group of samples stored for two months in containers made of plastic instead of glass, and similar results were observed.

[3] = Storage stability of aqueous prothioconazole solutions with or without cyclodextrins (LC-MS); conditions: two weeks at 54° C.
Experimental: Aqueous solutions of prothioconazole (PTZ) at a concentration of about 1% to about 1.5% (w/w) were prepared. These samples were stored for two weeks at 54° C., for eight weeks at 40° C., or for 52 weeks at 20° C. The initial amount of PTZ in each sample was measured together with the final amount of PTZ after storage using LC-MS as outlined in Example 1. From these measurements the percentage of PTZ remaining after storage was calculated and ranged from about 94% to about 97% (see FIG. 1A).
In a separate experiment, the ability of two different cyclodextrins, 2-hydroxypropyl-β cyclodextrin (HPCD) and methyl-β cyclodextrin (MeCD), to stabilize PTZ was evaluated. Aqueous solutions of PTZ at a concentration of about 1% to about 1.5% (w/w) were mixed with 15% (w/w) HPCD or 15% (w/w) MeCD. A control sample contained no cyclodextrins. The samples were stored for two weeks at 54° C., and the percentage of PTZ remaining after storage was calculated as before using LC-MS.

[4] = Storage stability of RAXIL PRO MD + penflufen with increasing methyl cyclodextrin (HPLC); conditions: RAXIL PRO MD+PFL (1.38% w/w), highest concentration of cyclodextrin (MeCD); two weeks at 54° C.
From the text: A sample containing PTZ without any PFL or cyclodextrin was included as the “Control” in FIGS. 3 and 4.

[5] = Storage stability of prothioconazole/penflufen mixture with 25 wt % MeCD at various temperatures (HPLC); conditions: for % Degradation (PTZ) / % PTZ / % PFL: with 25 wt % MeCD
Experimental: Aqueous solutions of a mixture of prothioconazole (PTZ) at a concentration of about 1.5% (w/w), and penflufen at a concentration of about 1.65% (w/w), were prepared and physically mixed with MeCD at 25 wt %. These samples were stored for two weeks at 54° C., for eight weeks at 40° C., or for 6 months at 30° C. The initial amount of PTZ or PFL in each sample was measured together with the final amount of PTZ or PLF after storage using HPLC.

## OC(Cc1ccccc1Cl)(Cn1nc[nH]c1=S)C1(Cl)CC1 (racemic) [Prothioconazole, 2-[2-(1-chlorocyclopropyl)-3-(2-chloro-phenyl)-2-hydroxy-propyl]-2,4-dihydro-3H-1,2,4-triazole-3-thione]
[1]
  Level of degradation to prothioconazole desthio, samples not purged with nitrogen versus nitrogen-stabilized samples and samples stored in the dark: over ten times higher
[2]
  Level of degradation to prothioconazole desthio, sample exposed to light and ambient oxygen versus nitrogen-stabilized samples: about ten times higher
[3]; mixed with 15% (w/w) HPCD
  degradation of PTZ: no observable degradation
[3]; mixed with 15% (w/w) MeCD
  degradation of PTZ: no observable degradation
[4]
  reduction in degradation of PTZ: 86%
[5]; Table 3, 30° C. for 6 months
  % Degradation (PTZ): 2.01%
  % PTZ: 1.46%
[5]; Table 3, 40° C. for 8 weeks
  % Degradation (PTZ): 4.03%
  % PTZ: 1.43%
[5]; Table 3, 54° C. for 2 weeks
  % Degradation (PTZ): 2.68%
  % PTZ: 1.45%
[5]; Table 3, T0
  % Degradation (PTZ): 0%
  % PTZ: 1.49%
[5]; Table 4, 30° C. for 6 months
  % Degradation (PTZ): 2.01%
  % PTZ: 1.46%
[5]; Table 4, 40° C. for 8 weeks
  % Degradation (PTZ): 4.70%
  % PTZ: 1.42%
[5]; Table 4, 54° C. for 2 weeks
  % Degradation (PTZ): 2.01%
  % PTZ: 1.46%
[5]; Table 4, T0
  % Degradation (PTZ): 0%
  % PTZ: 1.49%

## Cc1nn(C)c(F)c1C(=O)Nc1ccccc1C(C)CC(C)C (stereo not shown) [Penflufen, N[2-(1,3-dimethylbutyl)phenyl]-5-fluoro-1,3-dimethyl pyrazole-4-carboxamide]
[4]
  reduction in degradation of PFL: 65%
[5]; 0 weeks, 1.65 % (w/w)
  % Degradation (PFL): 0%
[5]; Table 3, 30° C. for 6 months
  % PFL: 1.62%
[5]; Table 3, 40° C. for 8 weeks
  % PFL: 1.54%
[5]; Table 3, 54° C. for 2 weeks
  % PFL: 1.6%
[5]; Table 3, T0
  % PFL: 1.68%
[5]; Table 4, 30° C. for 6 months
  % PFL: 1.58%
[5]; Table 4, 40° C. for 8 weeks
  % PFL: 1.60%
[5]; Table 4, 54° C. for 2 weeks
  % PFL: 1.58%
[5]; Table 4, T0
  % PFL: 1.64%
